# In patent US20070037825A1, “Enhancing the effect of radioimmunotherapy in the treatment of tumors” (priority 2002, published 2007):
# Structures can show the parent of a compound that is named as a salt. Marks after values point to notes of the source that are not given here.
# B1: ^131I-B72.3: iodine-131 labeled anti-TAG72 monoclonal antibody B72.3 (radioimmunoconjugate) (conjugate, chains of the INN, looked up)
# VH: QVQLQQSDAELVKPGASVKISCKASGYTFTDHAIHWAKQKPEQGLEWIGYISPGNDDIKYNEKFKGKATLTADKSSSTAYMQLNSLTSEDSAVYFCKRSYYGHWGQGTTLTVSS
# VL: DIQMTQSPASLSVSVGETVTITCRASENIYSNLAWYQQKQGKSPQLLVYAATNLADGVPSRFSGSGSGTQYSLKINSLQSEDFGSYYCQHFWGTPYTFGGGTRLEIK
# modifications: iodine-131 label
# Experiments:
# LS174T cells = assay: Effect of COMPOUND I mesylate on radiosensitivity of in vitro grown cells; type: cell-based, human
# [1] = system: LS174T human colorectal adenocarcinoma xenografts; assay: Radioimmunotherapy of SQ LS174T xenografts in athymic mice, with or without COMPOUND I mesylate; settings: for Relative tumor growth: relative to no treatment = 1
# LS174T SQ xenografts = assay: Effect of COMPOUND I on radiosensitivity of adenocarcinoma xenografts (external radiation); settings: P=0.127, Mantel-Cox logrank analysis
Molecule,"effect on radiosensitivity, combined with radiation (LS174T cells; monolayer, irradiation 1.95 Gy/min, total doses 1 Gy and 6 Gy)",effect on cell cycle (LS174T cells; pharmacologically relevant concentrations),"Tq (days) ([1]; quadrupling time calculated on day 10 (*), COMPOUND I mesylate PO BID 2 mg/mouse/day)",Relative tumor growth [1],difference between radiation plus COMPOUND I mesylate and radiation only (LS174T SQ xenografts),effect of combined treatment with COMPOUND I mesylate in vitro (LS174T cells; ^131I-labeled antibody plus COMPOUND I mesylate),tumor response ([1]; escalating doses),Tq (days) ([1]; quadrupling time calculated on day 28 (**) after 0.25 mCi ^131I-B72.3 IV),tumor response ([1]; single dose of 0.5 mCi or similar doses)
Cc1ccc(NC(=O)c2ccc(CN3CCN(C)CC3)cc2)cc1Nc1nccc(-c2cccnc2)n1 [COMPOUND I mesylate],not sufficient in vitro to synchronize all cells,Arrest of LS174T cells in the G1 phase,7.75* days,1,no statistical differences,–,–,–,–
B1,–,–,–,2.4,–,neither additive nor synergistic effects are measurable,cures and tumor growth arrest,18.95** days,growth delay but no cures
